According to patent publication US9603890B2, “Methods for increasing the selective efficacy of gene therapy using CAR peptide and heparan-sulfate mediated macropinocytosis” (Vascular Biosciences, priority 2012, dated 2017):
Like-named read-outs stand apart in the source and are kept apart here. Where no end group is shown, it is not given here.

Experiments:
[1] = tested on: rats with severe occlusive pulmonary hypertension induced by Sugen injection followed by hypoxia; experiment: MFN2 adenovirus gene therapy alone or co-administered with CAR peptide in severe occlusive PAH rats; type: in vivo, rat
From the text: CAR peptide was able to exert its disease-selective adjuvant properties by allowing enhanced viral delivery and uptake of gene product (MFN2) in an animal model of severe occlusive PAH in rats. (A) Figure showing the effect of MFN2 GTx administered alone when compared to control and diseased animal not given MFN2 Gtx. Statistical significance was examined using ANOVA (see Supplement for further statistical information). (B) Change in mitofusion-2 mRNA levels relative to control. […] (D) mPAP (mmHg) levels in Sugen hypoxia rats.
Adenoviruses were used as viral delivery vectors to incorporate cDNA inserts of MFN2 into rats with severe occlusive pulmonary hypertension induced by Sugen injection followed by hypoxia (FIG. 1).
The MFN2 gene encodes the mitofusion-2 protein, which is a mitochondrial membrane protein that participates in mitochondrial fusion. Mitofusion-2 contributes to the maintenance and operation of the mitochondrial network, and is involved in the regulation of vascular smooth muscle cell (VSMC) proliferation. […] Successful delivery and uptake of the MFN2 gene via adenovirus delivery vector into diseased cells results in increased expression of the mitofusion-2 protein, regulation of VSMC proliferation, and a subsequent decrease in disease indicators. […]

[2] = tested on: Chinese hamster ovary cells; settings: cited from earlier work
[3] = tested on: animal models of pulmonary arterial hypertension (PAH); settings: cited from earlier work
[4] = biological target: T1, Heparanase (EC 3.2.1.166) (Homo sapiens, UniProt Q9Y251); settings: heparan sulfate moiety as substrate; cited from earlier work
T1 sequence (Q9Y251 158-543 limits assumed): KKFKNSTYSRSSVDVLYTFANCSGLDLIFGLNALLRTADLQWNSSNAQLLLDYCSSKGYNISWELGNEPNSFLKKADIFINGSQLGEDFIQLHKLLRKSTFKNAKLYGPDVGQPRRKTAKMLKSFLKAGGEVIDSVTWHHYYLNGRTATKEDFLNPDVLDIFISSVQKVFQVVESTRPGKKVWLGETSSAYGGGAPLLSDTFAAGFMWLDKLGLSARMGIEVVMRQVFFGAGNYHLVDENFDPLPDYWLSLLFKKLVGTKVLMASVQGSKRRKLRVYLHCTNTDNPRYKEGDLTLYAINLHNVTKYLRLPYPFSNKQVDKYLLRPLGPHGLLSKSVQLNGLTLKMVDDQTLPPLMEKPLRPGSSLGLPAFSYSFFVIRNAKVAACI
T1 sequence (Q9Y251 36-109 limits assumed): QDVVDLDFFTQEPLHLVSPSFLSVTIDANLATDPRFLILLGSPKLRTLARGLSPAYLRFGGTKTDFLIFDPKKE

[5] = biological target: T2, Heparinase I (EC 4.2.2.7) (Pedobacter heparinus, UniProt Q05819); settings: heparan sulfate moiety as substrate; cited from earlier work
T2 sequence (Q05819 22-384): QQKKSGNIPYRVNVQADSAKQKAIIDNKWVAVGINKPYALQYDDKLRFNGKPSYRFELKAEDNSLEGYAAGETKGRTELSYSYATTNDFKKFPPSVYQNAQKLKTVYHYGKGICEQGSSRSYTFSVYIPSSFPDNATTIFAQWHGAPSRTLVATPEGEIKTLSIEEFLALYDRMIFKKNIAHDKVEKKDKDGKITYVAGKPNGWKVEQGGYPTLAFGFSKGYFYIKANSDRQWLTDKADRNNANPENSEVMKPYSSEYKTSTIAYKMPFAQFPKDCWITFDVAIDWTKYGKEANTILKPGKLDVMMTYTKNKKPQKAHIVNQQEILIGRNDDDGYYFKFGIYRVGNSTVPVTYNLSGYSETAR

[6] = Cell internalization and tissue penetration of truncated CAR versus CAR; type: cell-based

CARSKNKDC (also: cyclic, type not given here)
increase in gene therapy transfected gene expression [1]: 7 × | binding of CAR to Chinese hamster ovary cells ([2]; cells treated with heparinase I and III): greatly reduced | binding of CAR to Chinese hamster ovary cells ([2]; cells treated with heparinase I): greatly reduced | increase in selective vasodilation ([3]; CAR co-administered with vasodilators): approximately 2 × | increase in co-administered drug concentration ([3]; in vivo): 2 ×

2-O-sulfo-α-L-iduronic acid-2-deoxy-2-acetamido-α-D-glucopyranosyl [IdoA2S-GlcNS]
Heparanase cleavage (EC 3.2.1.166) [4]: No | Heparinase I cleavage (EC 4.2.2.7) [5]: Yes

CARSKNK [tCAR, truncated form of CAR]
potency for cell internalization and tissue penetration versus parent peptide CAR [6]: more potent
